Data published in ChEMBL document CHEMBL3259629, “Discovery and optimization of piperidyl-1,2,3-triazole ureas as potent, selective, and in vivo-active inhibitors of α/β-hydrolase domain containing 6 (ABHD6)” (J Med Chem, 2013).

Legend:
Details in all cases: Neuro2a, 3 nM
[1] = molecular target: T1, Fatty-acid amide hydrolase 1 (Mus musculus) (UniProt O08914)
T1 sequence (whole entry): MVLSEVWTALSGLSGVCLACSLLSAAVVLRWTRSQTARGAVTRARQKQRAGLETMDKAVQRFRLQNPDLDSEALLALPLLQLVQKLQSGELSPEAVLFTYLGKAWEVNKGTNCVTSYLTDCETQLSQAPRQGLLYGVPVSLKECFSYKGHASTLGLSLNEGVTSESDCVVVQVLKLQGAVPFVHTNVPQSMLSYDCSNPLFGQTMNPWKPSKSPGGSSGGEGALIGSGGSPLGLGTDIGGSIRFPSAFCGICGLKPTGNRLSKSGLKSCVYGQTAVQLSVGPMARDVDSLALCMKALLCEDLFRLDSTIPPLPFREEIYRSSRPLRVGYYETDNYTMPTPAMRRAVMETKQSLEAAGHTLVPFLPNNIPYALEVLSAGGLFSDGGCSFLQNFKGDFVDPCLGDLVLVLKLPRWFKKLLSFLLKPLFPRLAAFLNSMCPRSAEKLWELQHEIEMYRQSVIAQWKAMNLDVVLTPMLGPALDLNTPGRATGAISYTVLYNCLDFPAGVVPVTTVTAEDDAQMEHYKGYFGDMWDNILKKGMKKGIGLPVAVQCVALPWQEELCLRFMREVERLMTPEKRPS
Description: Inhibition of Faah in mouse Neuro2a cells at 3 nM after 4 hrs by ABPP-SILAC assay

[2] = molecular target: Acyl-protein thioesterase 2 (Mus musculus) (UniProt Q9WTL7)
Description: Inhibition of Lypla2 in mouse Neuro2a cells at 3 nM after 4 hrs by ABPP-SILAC assay

[3] = molecular target: T2, Rhomboid-related protein 4 (Mus musculus) (UniProt Q8BHC7)
T2 sequence (whole entry): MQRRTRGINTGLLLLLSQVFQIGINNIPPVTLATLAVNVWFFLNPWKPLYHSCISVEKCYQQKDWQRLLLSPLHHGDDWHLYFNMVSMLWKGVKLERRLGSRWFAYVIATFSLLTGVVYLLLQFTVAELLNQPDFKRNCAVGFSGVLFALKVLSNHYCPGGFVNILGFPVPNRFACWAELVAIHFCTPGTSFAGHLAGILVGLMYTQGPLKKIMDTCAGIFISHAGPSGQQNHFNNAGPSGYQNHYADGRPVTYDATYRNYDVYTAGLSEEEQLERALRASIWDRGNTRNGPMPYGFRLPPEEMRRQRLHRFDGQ
Description: Inhibition of Rhbdd1 in mouse Neuro2a cells at 3 nM after 4 hrs by ABPP-SILAC assay

[4] = molecular target: T3, Phosphatidylserine lipase ABHD16A (Mus musculus) (UniProt Q9Z1Q2)
T3 sequence (whole entry): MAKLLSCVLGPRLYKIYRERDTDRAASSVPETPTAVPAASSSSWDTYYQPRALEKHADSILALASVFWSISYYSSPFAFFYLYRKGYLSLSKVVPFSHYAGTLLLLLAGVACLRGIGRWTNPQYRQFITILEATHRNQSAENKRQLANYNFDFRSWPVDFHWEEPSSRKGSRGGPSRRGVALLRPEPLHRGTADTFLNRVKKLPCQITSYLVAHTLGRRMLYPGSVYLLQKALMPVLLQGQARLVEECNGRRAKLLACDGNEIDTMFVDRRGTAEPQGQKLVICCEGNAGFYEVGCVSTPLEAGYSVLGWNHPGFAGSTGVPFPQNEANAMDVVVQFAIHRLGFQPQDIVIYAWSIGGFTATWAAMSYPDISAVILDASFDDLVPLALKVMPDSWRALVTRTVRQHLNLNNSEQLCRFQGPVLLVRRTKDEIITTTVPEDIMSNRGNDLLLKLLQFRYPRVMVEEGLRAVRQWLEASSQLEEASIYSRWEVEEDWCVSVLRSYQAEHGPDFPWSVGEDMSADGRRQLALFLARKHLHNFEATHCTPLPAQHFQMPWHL
Description: Inhibition of Bat5 in mouse Neuro2a cells at 3 nM after 4 hrs by ABPP-SILAC assay

[5] = molecular target: Prolyl endopeptidase (Mus musculus) (UniProt Q9QUR6)
Description: Inhibition of Perp in mouse Neuro2a cells at 3 nM after 4 hrs by ABPP-SILAC assay

[6] = molecular target: Dipeptidyl peptidase 2 (Mus musculus) (UniProt Q9ET22)
Description: Inhibition of Dpp7 in mouse Neuro2a cells at 3 nM after 4 hrs by ABPP-SILAC assay

[7] = molecular target: Acyl-protein thioesterase 1 (Mus musculus) (UniProt P97823)
Description: Inhibition of Lypla1 in mouse Neuro2a cells at 3 nM after 4 hrs by ABPP-SILAC assay

[8] = molecular target: Patatin-like phospholipase domain-containing protein 7 (Mus musculus) (UniProt A2AJ88)
Description: Inhibition of Pnpla7 in mouse Neuro2a cells at 3 nM after 4 hrs by ABPP-SILAC assay

[9] = molecular target: T4, GPI inositol-deacylase (Mus musculus) (UniProt Q3UUQ7)
T4 sequence (whole entry): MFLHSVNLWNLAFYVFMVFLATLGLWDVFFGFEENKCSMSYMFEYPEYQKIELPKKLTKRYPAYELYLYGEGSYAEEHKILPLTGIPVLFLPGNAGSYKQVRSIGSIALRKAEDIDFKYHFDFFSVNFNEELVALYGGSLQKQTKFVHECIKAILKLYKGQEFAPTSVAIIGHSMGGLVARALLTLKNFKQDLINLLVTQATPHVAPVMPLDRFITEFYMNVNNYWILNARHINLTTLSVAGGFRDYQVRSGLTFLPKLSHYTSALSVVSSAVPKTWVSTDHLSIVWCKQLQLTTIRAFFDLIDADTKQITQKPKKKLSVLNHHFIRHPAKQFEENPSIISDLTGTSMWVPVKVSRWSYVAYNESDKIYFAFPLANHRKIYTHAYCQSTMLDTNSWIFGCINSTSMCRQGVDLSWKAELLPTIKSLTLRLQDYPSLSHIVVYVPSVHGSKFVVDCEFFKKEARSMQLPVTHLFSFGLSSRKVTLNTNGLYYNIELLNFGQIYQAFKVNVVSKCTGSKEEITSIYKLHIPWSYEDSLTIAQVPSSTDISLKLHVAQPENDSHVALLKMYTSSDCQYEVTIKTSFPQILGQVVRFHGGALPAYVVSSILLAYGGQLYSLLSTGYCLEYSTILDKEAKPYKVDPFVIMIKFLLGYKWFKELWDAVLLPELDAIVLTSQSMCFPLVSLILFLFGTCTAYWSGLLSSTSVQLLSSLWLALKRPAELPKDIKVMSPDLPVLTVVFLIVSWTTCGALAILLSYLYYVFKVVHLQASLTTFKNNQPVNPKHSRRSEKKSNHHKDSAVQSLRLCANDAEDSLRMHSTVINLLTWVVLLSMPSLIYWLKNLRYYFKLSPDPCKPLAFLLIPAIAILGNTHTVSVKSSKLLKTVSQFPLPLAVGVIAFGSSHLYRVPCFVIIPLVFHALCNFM
Description: Inhibition of Pgap1 in mouse Neuro2a cells at 3 nM after 4 hrs by ABPP-SILAC assay

Measured: inhibition

Acyl-protein thioesterase 1 (Mus musculus), sequence (P97823 whole entry, the tested form may be a part): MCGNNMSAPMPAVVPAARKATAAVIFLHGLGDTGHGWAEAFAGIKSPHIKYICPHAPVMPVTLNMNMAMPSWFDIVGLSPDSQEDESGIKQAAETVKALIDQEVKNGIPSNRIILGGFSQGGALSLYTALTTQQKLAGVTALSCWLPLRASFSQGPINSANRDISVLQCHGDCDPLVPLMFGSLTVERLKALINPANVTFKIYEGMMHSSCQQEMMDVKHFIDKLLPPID
Patatin-like phospholipase domain-containing protein 7 (Mus musculus), sequence (A2AJ88 whole entry, the tested form may be a part): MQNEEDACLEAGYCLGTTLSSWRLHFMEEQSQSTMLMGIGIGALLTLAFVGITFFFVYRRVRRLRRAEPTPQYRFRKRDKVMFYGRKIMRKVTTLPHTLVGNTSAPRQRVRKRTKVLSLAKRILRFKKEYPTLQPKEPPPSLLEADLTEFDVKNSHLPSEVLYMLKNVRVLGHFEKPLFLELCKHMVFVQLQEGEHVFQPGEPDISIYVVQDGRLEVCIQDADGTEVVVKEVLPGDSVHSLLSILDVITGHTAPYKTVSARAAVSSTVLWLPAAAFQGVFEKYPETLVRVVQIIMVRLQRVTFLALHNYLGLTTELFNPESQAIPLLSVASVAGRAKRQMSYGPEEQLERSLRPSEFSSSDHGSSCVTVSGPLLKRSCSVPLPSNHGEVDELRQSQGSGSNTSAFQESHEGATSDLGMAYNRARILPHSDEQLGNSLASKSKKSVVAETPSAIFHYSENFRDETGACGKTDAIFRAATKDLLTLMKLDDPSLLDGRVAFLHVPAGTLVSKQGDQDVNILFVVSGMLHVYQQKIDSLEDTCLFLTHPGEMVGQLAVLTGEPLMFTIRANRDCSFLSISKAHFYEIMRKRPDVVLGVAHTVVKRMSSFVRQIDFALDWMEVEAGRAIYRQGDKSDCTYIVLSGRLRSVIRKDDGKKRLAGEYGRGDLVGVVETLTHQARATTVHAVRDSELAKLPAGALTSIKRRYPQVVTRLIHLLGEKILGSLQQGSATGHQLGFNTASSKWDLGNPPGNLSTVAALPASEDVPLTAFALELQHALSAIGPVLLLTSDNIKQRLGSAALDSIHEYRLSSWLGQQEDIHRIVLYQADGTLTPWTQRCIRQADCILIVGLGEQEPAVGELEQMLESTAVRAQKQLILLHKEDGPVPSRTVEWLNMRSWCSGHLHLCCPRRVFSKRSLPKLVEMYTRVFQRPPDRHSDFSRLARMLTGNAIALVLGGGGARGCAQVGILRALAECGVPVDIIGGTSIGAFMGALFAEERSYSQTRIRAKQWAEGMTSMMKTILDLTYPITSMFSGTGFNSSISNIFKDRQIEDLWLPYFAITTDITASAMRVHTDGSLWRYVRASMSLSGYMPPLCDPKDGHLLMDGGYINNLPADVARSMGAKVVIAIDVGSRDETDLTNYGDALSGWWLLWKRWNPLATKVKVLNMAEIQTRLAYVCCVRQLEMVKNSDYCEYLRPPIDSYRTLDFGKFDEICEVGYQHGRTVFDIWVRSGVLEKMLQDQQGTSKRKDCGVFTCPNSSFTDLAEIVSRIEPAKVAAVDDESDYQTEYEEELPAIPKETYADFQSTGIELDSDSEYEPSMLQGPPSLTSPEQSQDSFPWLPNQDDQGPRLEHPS
Acyl-protein thioesterase 2 (Mus musculus), sequence (Q9WTL7 whole entry): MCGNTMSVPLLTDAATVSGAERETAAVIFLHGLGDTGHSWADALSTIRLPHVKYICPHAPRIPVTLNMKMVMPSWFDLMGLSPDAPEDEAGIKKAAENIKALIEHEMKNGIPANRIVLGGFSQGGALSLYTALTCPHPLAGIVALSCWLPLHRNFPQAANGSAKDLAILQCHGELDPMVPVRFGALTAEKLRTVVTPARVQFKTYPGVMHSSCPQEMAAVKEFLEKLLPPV
Dipeptidyl peptidase 2 (Mus musculus), sequence (Q9ET22 whole entry): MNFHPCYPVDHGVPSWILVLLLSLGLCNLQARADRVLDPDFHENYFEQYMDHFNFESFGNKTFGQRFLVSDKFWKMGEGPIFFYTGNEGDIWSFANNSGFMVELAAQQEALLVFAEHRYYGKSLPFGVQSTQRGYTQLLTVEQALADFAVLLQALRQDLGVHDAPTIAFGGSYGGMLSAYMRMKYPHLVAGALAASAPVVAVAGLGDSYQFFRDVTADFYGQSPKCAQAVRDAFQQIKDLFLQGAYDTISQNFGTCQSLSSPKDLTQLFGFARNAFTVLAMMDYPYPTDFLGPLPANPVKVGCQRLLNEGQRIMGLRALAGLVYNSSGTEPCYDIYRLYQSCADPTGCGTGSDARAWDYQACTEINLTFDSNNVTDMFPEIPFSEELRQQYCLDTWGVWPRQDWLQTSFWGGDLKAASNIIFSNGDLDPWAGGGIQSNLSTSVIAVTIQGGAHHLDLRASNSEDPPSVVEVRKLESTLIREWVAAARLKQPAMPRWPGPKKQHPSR
Prolyl endopeptidase (Mus musculus), sequence (Q9QUR6 whole entry, looked up): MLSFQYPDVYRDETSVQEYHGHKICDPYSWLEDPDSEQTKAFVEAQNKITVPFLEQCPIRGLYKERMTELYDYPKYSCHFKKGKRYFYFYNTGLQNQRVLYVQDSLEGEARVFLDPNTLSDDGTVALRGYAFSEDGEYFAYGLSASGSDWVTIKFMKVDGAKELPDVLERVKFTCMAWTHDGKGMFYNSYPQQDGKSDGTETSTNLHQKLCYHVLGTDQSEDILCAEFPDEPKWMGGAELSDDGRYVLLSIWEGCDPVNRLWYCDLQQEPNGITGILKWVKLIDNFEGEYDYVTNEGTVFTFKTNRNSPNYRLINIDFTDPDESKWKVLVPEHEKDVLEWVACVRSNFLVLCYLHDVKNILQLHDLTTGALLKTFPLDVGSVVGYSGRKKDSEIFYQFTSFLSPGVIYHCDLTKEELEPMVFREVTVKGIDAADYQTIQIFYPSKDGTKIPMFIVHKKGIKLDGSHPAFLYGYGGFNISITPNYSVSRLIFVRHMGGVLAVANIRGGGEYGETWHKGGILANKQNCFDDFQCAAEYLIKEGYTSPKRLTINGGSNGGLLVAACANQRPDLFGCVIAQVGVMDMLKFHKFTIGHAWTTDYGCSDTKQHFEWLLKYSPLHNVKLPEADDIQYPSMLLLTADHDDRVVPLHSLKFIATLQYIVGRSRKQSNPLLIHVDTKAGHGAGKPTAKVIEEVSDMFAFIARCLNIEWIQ

O=C(O)c1cccc(-c2ccc(-c3cn(C(=O)N4CCCCC4Cc4ccccc4)nn3)cc2)c1 (racemic)
< 50%: [1] | [2] | [3] | [4] | [5] | [6] | [7] | [8] | [9]

O=C(N1CCCCC1c1ccccc1)n1cc(-c2ccc(-c3cccc(CO)c3)cc2)nn1 (racemic)
< 50%: [1] | [2] | [3] | [4] | [5] | [6] | [7] | [8] | [9]

O=C(c1cccc(-c2ccc(-c3cn(C(=O)N4CCCCC4c4ccccc4)nn3)cc2)c1)N1CCCCC1 (racemic)
< 50%: [1] | [2] | [3] | [4] | [5] | [6] | [7] | [8] | [9]
